Measurements: publication PMC9223658, “New Borane-Protected Derivatives of α-Aminophosphonous Acid as Anti-Osteosarcoma Agents: ADME Analysis and Molecular Modeling, In Vitro Studies on Anti-Cancer Activities, and NEP Inhibition as a Possible Mechanism of Anti-Proliferative Activity” (International Journal of Molecular Sciences, 2022)

Key:
Type in all cases: cell-based, human
[1] = tested on: Saos-2 cells; assay: Cell cycle assay (PI/RNase, flow cytometry); settings: 72 h
Method: (§1) To examine the influence of compounds 4 and 6 on the distribution of cells in the cell cycle phases, the HOS and Saos-2 osteosarcoma cells (3.0 × 10^4 cells/mL) were seeded into 6-well plates (Nunc) and incubated with compounds 4 and 6 at concentrations of 12.5, 25, 50 µM and 20, 40, 80 µM as well as 15, 30; 60 µM and 21.25, 42.5, 85 µM, respectively. The compound solutions were prepared in a medium with 10% FBS. The control was constituted by the untreated cells (0 µM). The cells were treated for 72 h. Next, floating and adherent cells were harvested and subjected to further steps of the PI staining procedure (PI/RNase Staining Buffer, BD Pharmingen^TM, BD Biosciences, San Jose, CA, USA) previously described. The PI fluorescence intensity was measured using FACS Calibur (BD Pharmingen^TM), and the obtained data were analyzed using Cell Quest Pro Version 6.0. for the Macintosh operating system (BD Pharmingen^TM). The presented results were calculated as a percent of cells in the respective cell cycle phases (sub-G1, G0/G1, S and G2) among all the analyzed cells.

[2] = tested on: HOS cells; assay: Cell cycle assay (PI/RNase, flow cytometry); settings: 72 h
Method: as §1

[3] = tested on: active caspase 3 in Saos-2 cells; assay: Active caspase 3 assay (flow cytometry); settings: 72 h
Method: (§2) The level of active executor caspase 3 and initiator caspase 9 was determined to examine whether compounds 4 and 6 induced apoptosis in the HOS and Saos-2 cells. The influence of compounds 4 and 6 on HOS and Saos-2 were determined with the caspase 3 assay, whereas the influence of compound 6 on the HOS cells was investigated with the caspase 9 assay. In both assays, the osteosarcoma cells (3.0 × 10^5 cells/mL) were seeded in 6-well plates. The cells were treated with compounds 4 and 6 at concentrations of 12.5, 25, 50 µM and 20, 40, 80 µM as well as 15, 30, 60 µM and 21.25, 42.5, 85 µM for 72 h, respectively. The solutions of the compounds were prepared in a medium with 2% FBS. […] Next, floating and adherent cells were harvested and subjected to further steps of the staining procedures according to the manufacturer’s instruction. The level of active caspase 3 and caspase 9 was determined using the PE Active Caspase-3 Apoptosis Kit (BD Pharmingen^TM) and the CaspaTag^TM Caspase-9 in Situ Assay Kit (Millipore, Darmstadt, Germany), respectively. The number of stained cells (active caspase 3- or 9-positive cells) was measured using FACS Calibur, and the obtained data were analyzed using Cell Quest Pro Version 6.0. for the Macintosh operating system (BD Pharmingen™). The presented results were calculated as a percent of cells with either active caspase 3 or 9 among all the analyzed cells.

[4] = tested on: active caspase 3 in HOS cells; assay: Active caspase 3 assay (flow cytometry); settings: 72 h
Method: as §2

[5] = tested on: Saos-2 cells; assay: Migration, wound and transwell assays; settings: Saos-2, 24 h
Method: (§3) The migration of the HOS and Saos-2 cells was examined using the wound and transwell assays. The wound assay was performed in plastic plates (3-cm diameter, Nunc), in which the osteosarcoma cells were seeded at a density of 3.0 × 10^5 cells/mL. The assay was performed as described previously. Briefly, confluent cell cultures (with wounds) were treated with compounds 4 and 6 at concentrations of 12.5, 25, 50 µM and 20, 40, 80 µM as well as 15, 30, 60 µM and 21.25, 42.5, 85 µM for 24 h, respectively. The solutions of the compounds were prepared in a medium with 2% FBS. The control was constituted by the untreated cells (0 µM). To determine the migratory activity of the cells, the width of the wounds (at 0 and 24 h after incubation) was measured, and photos were taken using an inverted microscope Olympus CKX41 equipped with Image Processing (CellSense) software (Olympus, Tokyo, Japan). The results were expressed as a percentage of wound closure calculated using the following formula: ((width of wound at 0h—width of wound after 24h)/width of wound at 0h) × 100%.
(§4) The transwell migration assay was performed using inserts equipped with a membrane with 8 µm pore size in 24-well plates (Corning, Durham, NC, USA). To this end, the osteosarcoma cells (1 × 10^6 cells/mL) were suspended in a medium supplemented with 0.5% FBS and compounds 4 or 6 at the same concentrations as in the wound assay. The cells were added to the top chambers. The bottom chambers were filled with an appropriate medium supplemented with 10% FBS. After 24 h of incubation, the number of osteosarcoma cells migrating to the lower surface of the insert membrane was quantified using Calcein AM (Sigma Aldrich), which releases the fluorophore after intracellular degradation. The fluorescence was measured by means of a Perkin Elmer Victor^TM plate reader (Thermo Fisher Scientific, Rockford, IL, USA). The cell migratory activity after the treatment with compounds 4 and 6 was calculated as a percentage of invading cells in comparison with the number of invading untreated cells (100%; control).

[6] = tested on: HOS cells; assay: Migration, wound and transwell assays; settings: 24 h; for decrease of migration: wound and transwell assays
Method: as §3, §4

Structure (SMILES) | number of cells at sub-G1 phase ([1]; Saos-2, 30 µM and 60 µM) | number of cells at G0/G1 phase ([2]; 25 µM and 50 µM) | number of cells at sub-G1 and G2 phases ([2]; 25 µM and 50 µM) | increase in active caspase 3 vs untreated cells ([3]; Saos-2, 30 µM) | increase in active caspase 3 vs untreated cells ([3]; Saos-2, 60 µM) [%] | increase in active caspase 3 vs untreated cells ([4]; 25 µM) | increase in active caspase 3 vs untreated cells ([4]; 50 µM) [%] | effect on migration [5] | decrease of migration ([6]; 25 µM) | decrease of migration ([6]; 50 µM) | number of cells at sub-G1 phase ([1]; Saos-2, 42.5 µM and 85 µM) | number of cells at G0/G1 phase ([2]; 40 µM and 80 µM) | number of cells at sub-G1 and G2 phases ([2]; 40 µM and 80 µM) | increase in active caspase 3 vs untreated cells ([3]; Saos-2, 42.5 µM) | increase in active caspase 3 vs untreated cells ([3]; Saos-2, 85 µM) [%] | increase in active caspase 3 vs untreated cells ([4]; 40 µM) | increase in active caspase 3 vs untreated cells ([4]; 80 µM) [%] | depression of migration ([6]; 80 µM)
[BH3-][P+](OC(C)C)(OC(C)C)C(Nc1ccc(Br)cc1)c1ccc([N+](=O)[O-])cc1 (stereo not shown) [Compound 4, [1-(N-p-bromophenylamino)]-1-(p-nitrophenyl)methylphosphonousacid-borane diisopropyl ester] | significant increase | significant decrease | statistically significant increase | approx. 5% | ~10 | approx. 5% | ~6 | not affected | approx. 19% | approx. 38% |  |  |  |  |  |  |  | 
[BH3-][P+](OC(C)C)(OC(C)C)C(Nc1ccc(C)cc1)c1ccccc1 (stereo not shown) [Compound 6, [1-(N-p-tolylamino)]-1-phenylmethylphosphonous acid-borane diisopropyl ester] |  |  |  |  |  |  |  | not affected |  |  | significant increase | significant decrease | statistically significant increase | approx. 4% | ~6 | approx. 9% | ~20 | approx. 20%
